Results: patent publication EP1658776A1, “Method for producing live food water organisms in the presence of an antibacterial” (priority 2004, dated 2006)
Marks after values point to notes of the source that are not given here.

Tests used:
Vibrio sp. [1] = test: Vibrio count on TCBS in hatching medium (Example 1); type: cell-based; conditions: for TCBS (cfu/ml): 24h incubation
Experimental: (§1) 1000 g commercially available dry cysts from Great Salt Lake (GSL-strain) were sprayed with 20 ml solution to which 2.43g or 2.02g AgNO3 is added and another 1000 g cysts were sprayed with 20 ml to which 14.20g or 11.81g thiosulphate (Na2S2O3.5(H2O)) is added (in a ratio of 4 mol thiosulphate to 1 mol AgNO3) to obtain respectively 1.50 or 1.25 mg Ag/l in the hatching medium, after incubation of 2g treated cysts therein. The cysts were gently mixed for 15-30 minutes while spraying. Both fractions were mixed together in a ratio of (1:1). The cysts were vacuum packed and stored at different temperatures (4°C, 20°C and 30°C). Cysts from the same batch were kept as a control. After 4 weeks they were incubated at 2g (treated) cysts /l, following standard procedures, i.e.: salinity of 25 g/I, temperature of 30°C. Continuous illumination and air bubbling was provided. After 24 hours of incubation, samples of the hatching medium were taken for determination of the total count on Marine agar (MA) and Vibrio sp. on TCBS (specific growth medium for Vibrio sp.). The hatching percentage (percentage of cysts that hatch on the total of full cysts) of the cysts was calculated. Tabel 1: Hatching percentage (HP) of cysts, number of colony forming units (cfu) per ml of hatching medium on MA and on TCBS after 24h incubation of Artemia cysts of control cysts and cysts with different amounts of AgNO3 (expressed as mg Ag/l hatching medium). Each value is the average of three counts.

[2] = tested on: marine heterotrophic bacterial population; test: Total bacterial count on Marine agar in hatching medium (Example 1); type: cell-based; conditions: for MA (cfu/ml): 24h incubation
Experimental: as §1

gram-positive bacteria = conditions: against gram-positive bacteria; cited from earlier work
Vibrio sp. [3] = test: Vibrio reduction by silver combined with berberine during hatching (Example 4, Figure 2); type: cell-based
Experimental: GSL-cysts were incubated at 2g cysts /l, following standard procedures, i.e.: salinity of 25 g/l, temperature of 30°C. Continuous illumination and air bubbling was provided. Silver nitrate, thiosulphate and berberine were added in different concentrations to the hatching medium. After 24 hours, the hatching percentage was calculated and samples of the hatching medium were taken for determination of Vibrio sp. on TCBS.

crab larvae = conditions: natural seawater; cited from earlier work
pathogenic Vibrio sp. = test: Vibrio in shrimp tanks fed Artemia nauplii enriched in the presence of Ag; type: in vivo; conditions: Artemia nauplii enriched in the presence of Ag fed for 14 days to larval shrimp; versus control enrichment
Vibrio sp. [4] = test: Vibrio count on TCBS in enrichment medium (Example 5); type: cell-based; conditions: after 24 hours enrichment; compared to the non treated culture medium
Experimental: Artemia nauplii Instar I were harvested from the hatching tank, rinsed and incubated in cylindrical conical tanks with 90L water with a salinity of 35 g/l and a temperature of 28°C. The pH was controlled at 7.5. Stocking density of the nauplii was 300 nauplii / ml. The enrichment product 'Easy DHA Selco' which is a commercially available Seleco™-type enrichment product was added at the start of the enrichment at 600 mg/l. The dose of the silver (silver thiosulphate) in three of the six enrichment tanks was 1.5 mg Ag /l. In the three other tanks, Ag was not added. Samples of Artemia nauplii to analyse the levels of HUFA were taken at the end of the enrichment, thus 24 hours after adding the enrichment diets. At the same time, samples of the enrichment medium were taken for determination of Vibrio sp. on TCBS. Table 3: Highly unsaturated fatty acid levels (mg/g DW) of Artemia nauplli Instar II and bacterial concentrations (cfu/ml) on marine agar and TCBS of the enrichment medium after 24 hours enrichment with and without silver.

mussel = conditions: natural seawater; cited from earlier work
Artemia cysts [5] = test: Hatching percentage of treated cysts after storage at different temperatures (Example 2, Figures 1a/1b); type: in vivo, Artemia (GSL-strain); conditions: AgNO3 (and thiosulphate) applied on cysts; 1 to 8 weeks of storage at 20° C or more
Experimental: 1000 g commercially available dry cysts (GSL-strain) were sprayed with a 20 ml solution to which 2.43g AgNO3 and another 1000g cysts were sprayed 20 ml solution to which 14.20g thiosulphate (Na2S2O3.5(H2O)) was added. The cysts were gently mixed for 15 - 30 minutes while spraying. Both fractions of cysts were mixed together in a ratio of [1:1]. The cysts were vacuum packed and stored at different temperatures (4°C, 20°C and 30°C) for 1 to 8 weeks. At different time intervals (1 week, 2 weeks, 4 weeks and 8 weeks) they were incubated at 2g (treated) cysts /l following standard procedures, i.e.: salinity of 25 g/l, temperature of 30°C. Continuous illumination and air bubbling was provided. After 24 hours, the hatching percentage (percentage of cysts that hatch on the total of full cysts) was calculated. These values were compared with a former batch of cysts on which 1.4 mg/l of the bactericidal isothiazolin derivative comprising 5-chloro-2-methyl-4-isothiazolin-3-one and 2-methyl-4-isothiazolin-3-one was applied.

oyster embryos = conditions: natural seawater; cited from earlier work
Artemia cysts [6] = test: Hatching percentage of Artemia cysts sprayed with silver nitrate / thiosulphate (Example 1); type: in vivo, Artemia (GSL-strain); conditions: 24h incubation
Experimental: as §1

Vibrio species = test: Vibrio counts on TCBS in hatching medium, silver with or without thiosulphate (Example 3); type: cell-based, Vibrio sp.; conditions: 24 hours; for Vibrio counts on TCBS (cfu/ml) With thiosulphate: silver nitrate:thiosulphate 1:4
Experimental: (§2) GSL-cysts were incubated at 2g cysts /l, following standard procedures, i.e.: salinity of 25 g/l, temperature of 30°C. Continuous illumination and air bubbling was provided. Different concentrations of silver nitrate were added to the hatching medium. Thiosulphate was added to compare its effect on the hatching of Artemia and reduction of Vibrio sp. When thiosulphate was added, the molecular ratio of silver nitrate to thiosulphate was (1:4). After 24 hours, samples of the hatching medium were taken for determination of Vibrio sp. on TCBS and hatching percentage was calculated. Table 2: Effect of thiosulphate in combination with Ag, on hatching percentage of Artemia and on the amount of Vibrio species in the hatching medium

Artemia = test: Hatching percentage with silver in hatching medium, with or without thiosulphate (Example 3); type: in vivo, Artemia (GSL-cysts); conditions: for Hatching percentage (%) Without thiosulphate / Hatching percentage (%) With thiosulphate: 24 hours; for Hatching percentage (%) With thiosulphate: silver nitrate:thiosulphate 1:4
Experimental: as §2

[7] = after 24 hours, summary of Table 1
[8] = 1.25 mg/l Ag (AgNO3 + thiosulphate on cysts), storage 4°C
[9] = 1.25 mg/l Ag (AgNO3 + thiosulphate on cysts), storage 20°C
[10] = 1.25 mg/l Ag (AgNO3 + thiosulphate on cysts), storage 30°C
[11] = 1.50 mg/l Ag (AgNO3 + thiosulphate on cysts), storage 4°C
[12] = 1.50 mg/l Ag (AgNO3 + thiosulphate on cysts), storage 20°C
[13] = 1.50 mg/l Ag (AgNO3 + thiosulphate on cysts), storage 30°C

Which results are given for “silver thiosulphate [silver nitrate and thiosulphate]”?
TCBS (Vibrio sp.) in the medium with treated cysts (Vibrio sp. [1]; [7]): < 300 cfu/ml; total counts on Marine Agar [2, 7]: not affected

With `COc1ccc2cc3[n+](cc2c1OC)CCc1cc2c(cc1-3)OCO2` [berberine, reference compound] as the compound, how does the inhibitory activity (gram-positive bacteria) read?
The inhibitory activity was 50 to 400 mg/L.

And the “reduction in Vibrio species” value (Vibrio sp. [3]; berberine 0.1 mg/l to 2.5 mg/l added together with silver 0.1 mg Ag per liter)?
Its value is “some reduction in Vibrio species is observed”.

Which results are given for `O=[N+]([O-])[O-].[Ag+]` [Ag, silver nitrate]?
toxicity levels (EC50) (crab larvae): 0.055 mg Ag/l; pathogenic Vibrio sp. in the shrimp tanks (pathogenic Vibrio sp.): a reduction in pathogenic Vibrio sp. was noticed; decrease of Vibrio sp. in the hatching medium (Vibrio sp. [3]; 0.1 mg Ag per liter, with or without thiosulphate, no berberine): usually not sufficient to decrease the Vibrio sp.; Vibrio count on TCBS (Vibrio sp. [4]): significantly less; toxicity levels (EC50) (mussel): 0.014 mg Ag/l; TCBS (cfu/ml) (Vibrio sp. [1]; [8]): <3.00 x 10^2 cfu/ml; TCBS (cfu/ml) (Vibrio sp. [1]; [9]): 5.66 x 10^3 cfu/ml; TCBS (cfu/ml) (Vibrio sp. [1]; [10]): <3.00 x 10^2 cfu/ml; TCBS (cfu/ml) (Vibrio sp. [1]; [11]): <3.00 x 10^2 cfu/ml; TCBS (cfu/ml) (Vibrio sp. [1]; [12]): <3.00 x 10^2 cfu/ml; TCBS (cfu/ml) (Vibrio sp. [1]; [13]): <3.00 x 10^2 cfu/ml; Hatching percentage (Artemia cysts [5]): did not decrease; MA (cfu/ml) [2, 8]: 2.69 x 10^7 cfu/ml; MA (cfu/ml) [2, 9]: 1.29 x 10^7 cfu/ml; MA (cfu/ml) [2, 10]: 3.17 x 10^7 cfu/ml; MA (cfu/ml) [2, 11]: 1.20 x 10^7 cfu/ml; MA (cfu/ml) [2, 12]: 8.07 x 10^6 cfu/ml; MA (cfu/ml) [2, 13]: 6.55 x 10^6 cfu/ml; toxicity levels (EC50) (oyster embryos): 0.022 mg Ag/l; HP (%) (Artemia cysts [6]; [9]): 80.3%; HP (%) (Artemia cysts [6]; [10]): 82.6%; HP (%) (Artemia cysts [6]; 1.25 mg/l Ag in hatching medium (AgNO3 + thiosulphate 1:4 mol on cysts), cysts stored 4 weeks at 4°C): 84.5%; HP (%) (Artemia cysts [6]; [11]): 81.4%; HP (%) (Artemia cysts [6]; [12]): 82.2%; HP (%) (Artemia cysts [6]; [13]): 81.2%; Vibrio counts on TCBS (cfu/ml) Without thiosulphate (Vibrio species; Ag 0.1 mg/l as silver nitrate): 7.96 x 10^6 cfu/ml; Vibrio counts on TCBS (cfu/ml) With thiosulphate (Vibrio species; Ag 0.1 mg/l): 1.47 x 10^5 cfu/ml; Vibrio counts on TCBS (cfu/ml) Without thiosulphate (Vibrio species; Ag 0.25 mg/l as silver nitrate): 1.79 x 10^5 cfu/ml; Vibrio counts on TCBS (cfu/ml) With thiosulphate (Vibrio species; Ag 0.25 mg/l): 1.70 x 10^4 cfu/ml; Vibrio counts on TCBS (cfu/ml) Without thiosulphate (Vibrio species; Ag 0.5 mg/l as silver nitrate): 3.48 x 10^4 cfu/ml; Vibrio counts on TCBS (cfu/ml) With thiosulphate (Vibrio species; Ag 0.5 mg/l): <3.00 x 10^2 cfu/ml; Vibrio counts on TCBS (cfu/ml) Without thiosulphate (Vibrio species; Ag 0.75 mg/l as silver nitrate): 6.23 x 10^2 cfu/ml; Vibrio counts on TCBS (cfu/ml) Without thiosulphate (Vibrio species; Ag 1.0 mg/l as silver nitrate): 4.80 x 10^2 cfu/ml; Vibrio counts on TCBS (cfu/ml) With thiosulphate (Vibrio species; Ag 1.0 mg/l): <3.00 x 10^2 cfu/ml; Vibrio counts on TCBS (cfu/ml) Without thiosulphate (Vibrio species; Ag 1.25 mg/l as silver nitrate): <3.00 x 10^2 cfu/ml; Vibrio counts on TCBS (cfu/ml) Without thiosulphate (Vibrio species; Ag 1.5 mg/l as silver nitrate): <3.00 x 10^2 cfu/ml; Vibrio counts on TCBS (cfu/ml) With thiosulphate (Vibrio species; Ag 1.5 mg/l): <3.00 x 10^2 cfu/ml; Vibrio counts on TCBS (cfu/ml) Without thiosulphate (Vibrio species; Ag 1.75 mg/l as silver nitrate): <3.00 x 10^2 cfu/ml; Vibrio counts on TCBS (cfu/ml) Without thiosulphate (Vibrio species; Ag 2.0 mg/l as silver nitrate): <3.00 x 10^2 cfu/ml; Vibrio counts on TCBS (cfu/ml) With thiosulphate (Vibrio species; Ag 2.0 mg/l): <3.00 x 10^2 cfu/ml; Vibrio counts on TCBS (cfu/ml) With thiosulphate (Vibrio species; Ag 2.5 mg/l): <3.00 x 10^2 cfu/ml; Vibrio counts on TCBS (cfu/ml) With thiosulphate (Vibrio species; Ag 5.0 mg/l): <3.00 x 10^2 cfu/ml; Vibrio counts on TCBS (cfu/ml) With thiosulphate (Vibrio species; Ag 10.0 mg/l): <3.00 x 10^2 cfu/ml; Hatching percentage (%) Without thiosulphate (Artemia; Ag 0.1 mg/l as silver nitrate): 77.1%; Hatching percentage (%) With thiosulphate (Artemia; Ag 0.1 mg/l): 79.9%; Hatching percentage (%) Without thiosulphate (Artemia; Ag 0.25 mg/l as silver nitrate): 76.6%; Hatching percentage (%) With thiosulphate (Artemia; Ag 0.25 mg/l): 78.6%; Hatching percentage (%) Without thiosulphate (Artemia; Ag 0.5 mg/l as silver nitrate): 78.3%; Hatching percentage (%) With thiosulphate (Artemia; Ag 0.5 mg/l): 76.0%; Hatching percentage (%) Without thiosulphate (Artemia; Ag 0.75 mg/l as silver nitrate): 73.9%; Hatching percentage (%) Without thiosulphate (Artemia; Ag 1.0 mg/l as silver nitrate): 72.5%; Hatching percentage (%) With thiosulphate (Artemia; Ag 1.0 mg/l): 74.4%; Hatching percentage (%) Without thiosulphate (Artemia; Ag 1.25 mg/l as silver nitrate): 75.5%; Hatching percentage (%) Without thiosulphate (Artemia; Ag 1.5 mg/l as silver nitrate): 71.1%; Hatching percentage (%) With thiosulphate (Artemia; Ag 1.5 mg/l): 76.3%; Hatching percentage (%) Without thiosulphate (Artemia; Ag 1.75 mg/l as silver nitrate, hatching is delayed (maximal HP not reached after 24 h)): 69.9* %; Hatching percentage (%) Without thiosulphate (Artemia; Ag 2.0 mg/l as silver nitrate, hatching is delayed (maximal HP not reached after 24 h)): 65.0* %; Hatching percentage (%) With thiosulphate (Artemia; Ag 2.0 mg/l): 74.3%; Hatching percentage (%) Without thiosulphate (Artemia; Ag 2.5 mg/l as silver nitrate, hatching is delayed (maximal HP not reached after 24 h)): 50.0* %; Hatching percentage (%) With thiosulphate (Artemia; Ag 2.5 mg/l): 75.6%; Hatching percentage (%) Without thiosulphate (Artemia; Ag 5.0 mg/l as silver nitrate, hatching is delayed (maximal HP not reached after 24 h)): 28.0* %; Hatching percentage (%) With thiosulphate (Artemia; Ag 5.0 mg/l): 77.6%; Hatching percentage (%) Without thiosulphate (Artemia; Ag 10.0 mg/l as silver nitrate): 0%; Hatching percentage (%) With thiosulphate (Artemia; Ag 10.0 mg/l): 77.1%; hatching of the Artemia naupllii (Artemia; more than 2 mg/l till at least 10 mg/l Ag, thiosulphate 4 mol per 1 mol AgNO3): still not affected; hatching of Artemia nauplii (Artemia; very high concentrations (> 10 mg/l), without thiosulphate): do not hatch at all
